In the data set the test system is intracellular carboxylesterases (U937 cell extract). The experiment in a line: Broken cell carboxylesterase assay, U937 cell extract. The format is in vitro ADME. The conditions noted are these: ester 2.5 μM, 37° C. How it is done: Any given compound of the present invention wherein R1 is an ester group may be tested to determine whether it meets the requirement that it be hydrolysed by intracellular esterases, by testing in the following assay.
U937 or Hut78 tumour cells (˜10^9) were washed in 4 volumes of Dulbeccos PBS (˜1 liter) and pelleted at 525 g for 10 min at 4° C. This was repeated twice and the final cell pellet was resuspended in 35 mL of cold homogenising buffer (Trizma 10 mM, NaCl 130 mM, CaCl2 0.5 mM pH 7.0 at 25° C.). Homogenates were prepared by nitrogen cavitation (700 psi for 50 min at 4° C.). The homogenate was kept on ice and supplemented with a cocktail of inhibitors at final concentrations of: • Leupeptin 1 μM • Aprotinin 0.1 μM • E64 8 μM • Pepstatin 1.5 μM • Bestatin 162 μM • Chymostatin 33 μM After clarification of the cell homogenate by centrifugation at 525 g for 10 min, the resulting supernatant was used as a source of esterase activity and was stored at −80° C. until required. Measurement of Ester Cleavage
Hydrolysis of esters to the corresponding carboxylic acids can be measured using the cell extract, prepared as above. To this effect cell extract (˜30 μg/total assay volume of 0.5 ml) was incubated at 37° C. in a Tris-HCl 25 mM, 125 mM NaCl buffer, pH 7.5 at 25° C. At zero time the ester (substrate) was then added at a final concentration of 2.5 μM and the samples were incubated at 37° C. for the appropriate time (usually 0 or 80 min). Reactions were stopped by the addition of 3× volumes of acetonitrile. For zero time samples the acetonitrile was added prior to the ester compound. After centrifugation at 12000 g for 5 min, samples were analysed for the ester and its corresponding carboxylic acid at room temperature by LCMS (Sciex API 3000, HP1100 binary pump, CTC PAL). Chromatography was based on an AceCN (75×2.1 mm) column and a mobile phase of 5-95% acetonitrile in water/0.1% formic acid.
Rates of hydrolysis are expressed in pg/mL/min.

A value given as a limit tells only on which side of the number the result lay.

Turning to `Cc1ccc(NCc2cnc3nc(N)nc(N)c3c2C)cc1` [drawing 90], the “Hydrolysis Rate Range U937 Cells” value is more than 50000 pg/mL/min. Take `Cc1ccc(NCc2cnc3nc(N)nc(N)c3c2C)cc1` [drawing 92]: the “Hydrolysis Rate Range U937 Cells” value is 1000 to 50000 pg/mL/min. As for `COc1cc2c(Oc3ccc(NC(=O)c4ccccc4)cc3)ccnc2cc1C`, the “Hydrolysis Rate Range U937 Cells” value is 100 to 1000 pg/mL/min.

As to `Cc1ccc2cc(C(=O)NO)sc2c1` [drawing 84], the “Hydrolysis Rate Range U937 Cells” value was 1000 to 50000 pg/mL/min. On to `Cc1ccc(NCc2cnc3nc(N)nc(N)c3c2C)cc1` [drawing 96], for which the “Hydrolysis Rate Range U937 Cells” value was more than 50000 pg/mL/min. For the molecule `Cc1ccc2cc(C(=O)NO)sc2c1` [drawing 98], the “Hydrolysis Rate Range U937 Cells” value is more than 50000 pg/mL/min. With `Cc1ccc2cc(C(=O)NO)sc2c1` [drawing 101] the figure was more than 50000 pg/mL/min. Consider `Cc1ccc2cc(C(=O)NO)sc2c1` [drawing 87], for which the “Hydrolysis Rate Range U937 Cells” value is given as more than 50000 pg/mL/min. For `Cc1ccc(NCc2cnc3nc(N)nc(N)c3c2C)cc1` [drawing 94], the “Hydrolysis Rate Range U937 Cells” value lay in the range of 1000 to 50000 pg/mL/min.

The values above are taken from patent publication US9273003B2, “Methods of treating lymphoma and rheumatoid arthritis with cyclopentyl (2S)-cyclohexyl[({6-[3-(hydroxyamino)-3-oxopropyl]pyridin-3-yl}methyl)amino]acetate” (GlaxoSmithKline Intellectual Property Development Limited, priority 2006, dated 2016).
